According to patent US9107411B2, “Indolecarboxamides and benzimidazolecarboxamides as insecticides and acaricides” (BAYER INTELLECTUAL PROPERTY GMBH, priority 2011, dated 2015):
Blank lines part the entries; values can stand above or below the compound they belong to.

Key:
[1] = system: Amblyomma hebraeum; experiment: Amblyomma hebaraeum test (AMBYHE); type: in vivo; settings: application rate 100 ppm; tick nymphs immersed one minute; after 42 days
Method: Amblyomma hebaraeum Test (AMBYHE) Solvent: dimethyl sulphoxide To prepare an appropriate active ingredient formulation, 10 mg of active ingredient are mixed with 0.5 ml of dimethyl sulphoxide and the concentrate is diluted with water to the desired concentration. Tick nymphs (Amblyomma hebraeum) are placed into perforated plastic beakers and immersed in the desired concentration for one minute. The ticks are transferred on filter paper into a Petri dish and stored in a climate-controlled cabinet. After 42 days, the kill in % is determined 100% means that all of the ticks have been killed; 0% means that none of the ticks have been killed.

[2] = system: Boophilus microplus; experiment: Boophilus microplus test (BOOPMI injection); type: in vivo; settings: application rate 20 μg/animal; injected into the abdomen; after 7 days
How it was run: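 Read-out after 7 days is % efficacy, judged by fertile egg laying, with 100% meaning no fertile eggs from any tick. Compound was given by abdominal injection as a DMSO solution diluted to the desired concentration. Treated ticks were held in dishes in a climate-controlled room.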

[3] = system: Ctenocephalides felis; experiment: Ctenocephalides felis oral (CTECFE); type: in vivo; settings: application rate 100 ppm in citrated cattle blood; after 2 days
How it was run: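 Readout is percent mortality after 2 days (0–100%) in roughly 20 unfed adult fleas. The fleas had imbibed citrated cattle blood dosed with compound through Parafilm, with the compound diluted from a DMSO concentrate.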

[4] = system: Lucilia cuprina larvae; experiment: Lucilia cuprina test (LUCICU); type: in vivo; settings: application rate 100 ppm; treated horse meat; after 2 days
How it was run: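 Mortality scored as percent of larvae killed 2 days after exposure. Horse meat was treated with the compound, formulated from DMSO stock diluted with water to the test concentration, and populated with roughly 20 larvae.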

[5] = system: adult Musca domestica; experiment: Musca domestica test (MUSCDO); type: in vivo; settings: application rate 100 ppm; treated sponge; after 2 days
How it was run: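 After 2 days' exposure to a treated sponge, adult house fly mortality was recorded as kill %. Formulation: active ingredient in dimethyl sulphoxide, then water dilution to the test concentration.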

[6] = system: Phaedon cochleariae; experiment: Phaedon test (PHAECO spray treatment); type: in vivo; settings: Chinese cabbage leaf discs, after 7 days
How it was run: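 Larval mortality was assessed 7 days after Phaedon cochleariae larvae were placed on dried, spray-treated Brassica pekinensis leaf discs. The formulation was an acetone/dimethylformamide concentrate with alkylaryl polyglycol ether emulsifier, diluted in emulsifier-containing water. Results are given as % kill, from 0 (no larvae dead) to 100 (all dead).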

[7] = system: Spodoptera frugiperda; experiment: Spodoptera frugiperda test (SPODFR spray treatment); type: in vivo; settings: maize leaf discs, after 7 days
How it was run: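 Mortality read-out at 7 days, given as % efficacy, where 100% means every caterpillar dead and 0% none. Caterpillars were placed on dried maize leaf discs that had been sprayed with test formulation. That formulation was an acetone/dimethylformamide concentrate diluted in emulsifier-containing water.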

[8] = system: Tetranychus urticae; experiment: Tetranychus test, OP-resistant (TETRUR spray treatment); type: in vivo; settings: bean leaf discs, after 6 days
How it was run: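 Bean leaf discs infested with all stages of OP-resistant T. urticae sprayed with compound formulated in acetone/DMF plus alkylaryl polyglycol ether emulsifier, diluted in water. Efficacy (% mites killed) scored after 6 days.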

[9] = logP (HPLC-MS); type: physicochemical; settings: HPLC, reversed-phase column (C18), acidic range pH 2.7, acetonitrile (0.1% formic acid)/water gradient, 43° C., calibration with unbranched alkan-2-ones
[10] = system: adult engorged Boophilus microplus females of the SP-resistant Parkhurst strain; experiment: Boophilus microplus test (DIP); type: in vivo; settings: application rate 100 ppm, after 7 days
Method: Boophilus microplus Test (DIP)
Test animals: adult engorged Boophilus microplus females of the SP-resistant Parkhurst strain
Solvent: dimethyl sulphoxide
10 mg of active ingredient are dissolved in 0.5 ml of dimethyl sulphoxide. For the purpose of preparing a suitable formulation, the active ingredient solution is diluted with water to the concentration desired in each case.
This active ingredient formulation is pipetted into tubes. 8-10 ticks are transferred into a further tube with holes. The tube is immersed into the active ingredient formulation, and all ticks are completely wetted. After the liquid has run out, the ticks are transferred onto filter discs in plastic dishes and stored in a climate-controlled room.
The activity is assessed after 7 days by laying of fertile eggs. Eggs whose fertility is not outwardly visible are stored in glass tubes in a climate-controlled cabinet until the larvae hatch. An efficacy of 100% means that none of the ticks has laid any fertile eggs.

[11] = system: Myzus persicae; experiment: Myzus test (MYZUPE spray treatment); type: in vivo; settings: Chinese cabbage leaf discs, after 6 days
Method: Myzus Test (MYZUPE Spray Treatment) Solvent: 78 parts by weight of acetone • • 1.5 parts by weight of dimethylformamide Emulsifier: 0.5 part by weight of alkylaryl polyglycol ether To produce an appropriate active ingredient formulation, 1 part by weight of active ingredient is mixed with the stated amounts of solvent and emulsifier, and the concentrate is diluted with emulsifier-containing water to the desired concentration. Leaf discs of Chinese cabbage (Brassica pekinensis) infested by all stages of the green peach aphid (Myzus persicae) are sprayed with an active ingredient formulation of the desired concentration. After 6 days, the efficacy in % is determined. 100% means that all of the aphids have been killed; 0% means that none of the aphids have been killed.

SMILES: CCn1c(C(=O)NC(c2ccc(F)c(Cl)c2)C(F)(F)F)cc2cc(C(=O)NC3CC3)c(Cl)cc21 (stereo not shown) [Compound 18]
efficacy (laying of fertile eggs) [10]: 80%
efficacy (laying of fertile eggs) [2]: 100%
efficacy (kill in %) [3]: 100%
efficacy (kill in %) [4]: 100%
efficacy (kill in %) [5]: 100%
efficacy in % ([6]; application rate 100 g/ha): 100%
efficacy in % ([7]; application rate 100 g/ha): 100%
efficacy in % ([8]; application rate 100 g/ha): 90%
log p [9]: 3.82

SMILES: CCn1c(C(=O)NC(c2ccc(F)c(Br)c2)C(F)(F)F)cc2cc(C(=O)NC3CC3)c(Cl)cc21 (stereo not shown) [Compound 12]
efficacy (laying of fertile eggs) [2]: 100%
efficacy (kill in %) [3]: 100%
efficacy (kill in %) [4]: 100%
efficacy (kill in %) [5]: 100%
efficacy in % ([11]; application rate 100 g/ha): 90%
efficacy in % ([6]; application rate 100 g/ha): 100%
efficacy in % ([7]; application rate 100 g/ha): 100%
efficacy in % ([8]; application rate 100 g/ha): 100%
log p [9]: 3.82

SMILES: CCn1c(C(=O)NC(c2ccc(F)c(Cl)c2)C(F)(F)F)nc2cc(C(=O)NC3CC3)c(Cl)cc21 (stereo not shown) [Compound 37]
efficacy (laying of fertile eggs) [2]: 100%
efficacy (kill in %) [3]: 100%
efficacy (kill in %) [4]: 100%
efficacy (kill in %) [5]: 100%
efficacy in % ([11]; application rate 500 g/ha): 90%
efficacy in % ([6]; application rate 500 g/ha): 100%
efficacy in % ([7]; application rate 500 g/ha): 100%
efficacy in % ([8]; application rate 500 g/ha): 100%
log p [9]: 3.59

Further lines, with some results ahead:

log p [9]: 3.52
SMILES: C#CCn1c(C(=O)NC(c2ccc(F)c(Br)c2)C(F)(F)F)cc2cc(C(=O)NC3CC3)c(Cl)cc21 (stereo not shown) [Compound 14]
efficacy (kill in %) [1]: 100%
efficacy (laying of fertile eggs) [2]: 100%
efficacy (kill in %) [3]: 100%
efficacy (kill in %) [4]: 100%
efficacy (kill in %) [5]: 100%
efficacy in % ([6]; application rate 500 g/ha): 100%
efficacy in % ([7]; application rate 500 g/ha): 100%
efficacy in % ([8]; application rate 500 g/ha): 100%

log p [9]: 3.71
SMILES: CCn1c(C(=O)NC(c2ccc(F)c(C(F)(F)F)c2)C(F)(F)F)nc2cc(C(=O)NC3CC3)c(Cl)cc21 (stereo not shown) [Compound 38]
efficacy (laying of fertile eggs) [2]: 100%
efficacy (kill in %) [3]: 100%
efficacy (kill in %) [4]: 100%
efficacy (kill in %) [5]: 100%
efficacy in % ([11]; application rate 100 g/ha): 100%
efficacy in % ([11]; application rate 500 g/ha): 90%
efficacy in % ([6]; application rate 500 g/ha): 100%
efficacy in % ([7]; application rate 500 g/ha): 100%
efficacy in % ([8]; application rate 500 g/ha): 100%

log p [9]: 3.52
SMILES: Cn1c(C(=O)NC(c2ccc(F)c(Cl)c2)C(F)(F)F)cc2cc(C(=O)NC3(C#N)CC3)c(Cl)cc21 (stereo not shown) [Compound 54]
efficacy (laying of fertile eggs) [2]: 100%
efficacy (kill in %) [3]: 100%
efficacy (kill in %) [4]: 100%
efficacy (kill in %) [5]: 100%
efficacy in % ([11]; application rate 100 g/ha): 100%
efficacy in % ([6]; application rate 100 g/ha): 100%
efficacy in % ([7]; application rate 100 g/ha): 100%
efficacy in % ([8]; application rate 100 g/ha): 100%
